Test [1] relates to THP-1 cells. The experiment in a line: Lamp1 lysosomal exocytosis assay. In kind it is cell-based. The note with it: Homo sapiens, 55 min, 55 min incubation, top dose 20 μM. The method, boiled down:
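THP-1 cells (1e5/well) exposed to a 7-point 3-fold compound series, top final 20 μM, for 55 min at 37°C. Surface Lamp1 then stained with Lamp1-PE on ice in buffer containing 80 μM Dynasore, and read by flow cytometry as PE geometric mean on live, sytox-negative singlets.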

For test [2], the system named is TFEB. Put plainly: TFEB nuclear translocation assay. Type of test: cell-based. The note with it: Homo sapiens; HeLa wt or HeLa TRPML1 KO cells, treated for 2 hrs; ratio of nuclear to ring-region TFEB intensity. The method, boiled down: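 HeLa wild-type or TRPML1 KO cells treated 2 h with compound at 37 °C, PFA-fixed, immunostained for TFEB (Alexa 488) with Hoechst nuclei. Imaged at ×20, four fields/well. Value is ratio of nuclear to perinuclear-ring TFEB intensity, with nuclei counts.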

Experimental findings from patent publication US20230416262A1, “TRPML MODULATORS” (Casma Therapeutics, Inc., priority 2020, published 2023) are described below.

Bounds are passed on as bounds.

Consider `CN(C)S(=O)(=O)c1ccc(S(=O)(=O)N2CC3(CN(CC4CCOCC4)C3)c3ccccc32)cc1` [Compound I-101, N,N-dimethyl-4-({1-[(oxan-4-yl)methyl]-1′,2′-dihydrospiro[azetidine-3,3′-indol]-1′-yl}sulfonyl)benzene-1-sulfonamide], for which the EC50 (as a rule, the concentration at which the effect is half-maximal) was not below 5010 nM in test [1] and 2010 to 8000 nM in test [2].

Regarding `CN(C)S(=O)(=O)c1ccc(S(=O)(=O)N2CC3(CCN(C4CCOC4)CC3)c3ccccc32)cc1` (stereo not drawn) [Compound I-103, N,N-dimethyl-4-{[1′-(oxolan-3-yl)-1,2-dihydrospiro[indole-3,4′-piperidin]-1-yl]sulfonyl}benzene-1-sulfonamide], the figures for the EC50 in test [1] and in test [2] were not below 5010 nM and 2010 to 8000 nM, respectively.

For `CN(C)S(=O)(=O)c1ccc(S(=O)(=O)N2CC3(CCN(C(=O)OCc4ccccc4)CC3)c3ccccc32)cc1` [Compound I-104], the values for the concentration giving a half-maximal response (EC50) in test [1] and in test [2] were not above 500 nM and not above 2000 nM, respectively.

In the case of `CN(C)S(=O)(=O)c1ccc(S(=O)(=O)N2CC3(CN(C(=O)OCc4ccccc4)C3)c3ccccc32)cc1` [Compound I-105, benzyl 1′-[4-(dimethylsulfamoyl)benzenesulfonyl]-1′,2′-dihydrospiro[azetidine-3,3′-indole]-1-carboxylate], the EC50 in test [1] is not below 5010 nM; in test [2], not above 2000 nM.

In the case of `CN(C)S(=O)(=O)c1ccc(S(=O)(=O)N2CC3(CCCC3)Oc3ccccc32)cc1` [Compound I-116, 4-((3,4-dihydrospiro[1,4-benzoxazine-2,1′-cyclopentan]-4-yl}sulfonyl)-N,N-dimethylbenzene-1-sulfonamide], the concentration for a half-maximal effect (EC50) in test [1] was not below 5010 nM; in test [2] it was not above 2000 nM.

Take `CN(C)S(=O)(=O)c1ccc(S(=O)(=O)N2CC3(CCN(C(=O)C(C)(C)C)CC3)c3ccccc32)cc1` [Compound I-118, 4-{[1′-(2,2-dimethylpropanoyl)-1,2-dihydrospiro[indole-3,4′-piperidin]-1-yl]sulfonyl}-N,N-dimethylbenzene-1-sulfonamide]: the EC50 was 1010 to 5000 nM in test [1] and not above 2000 nM in test [2].

Regarding `COC1CCC2(CC1)CN(S(=O)(=O)c1ccc(S(=O)(=O)N(C)C)cc1)c1ccccc12` (stereo not drawn) [Compound I-119, 4-({4-methoxy-1′,2′-dihydrospiro[cyclohexane-1,3′-indol]-1′-yl}sulfonyl)-N,N-dimethylbenzene-1-sulfonamide], the EC50 in test [1] is 1010 to 5000 nM; in test [2], not above 2000 nM.

On to `CC(F)(F)CN1CCC2(CC1)CN(S(=O)(=O)c1ccc(C(F)F)cc1)c1ccccc12` [Compound I-122, 1-((4-(difluoromethyl)phenyl)sulfonyl)-1′-(2,2-difluoropropyl)spiro[indoline-3,4′-piperidine]], for which the EC50 in test [1] is not below 5010 nM; in test [2], not above 2000 nM.

With `CN(C)S(=O)(=O)c1ccc(S(=O)(=O)N2CC3(CCCC3)n3nccc32)cc1` [Compound I-124, 4-({1′,2′-dihydrospiro[cyclopentane-1,3′-pyrazolo[1,5-a]imidazol]-1′-yl}sulfonyl)-N,N-dimethylbenzene-1-sulfonamide], the values for the EC50 in test [1] and in test [2] were not below 5010 nM and not below 10000 nM, respectively.

In the case of `CN(C)S(=O)(=O)c1ccc(S(=O)(=O)N2CCC3(CCN(CC(F)(F)F)CC3)c3ccccc32)cc1` [Compound I-126, N,N-dimethyl-4-((1-(2,2,2-trifluoroethyl)-2′,3′-dihydro-1′H-spiro[piperidine-4,4′-quinolin]-1′-yl)sulfonyl)benzenesulfonamide], the half-maximal effective concentration (EC50) is not below 5010 nM in test [1] and not above 2000 nM in test [2].

`CN(C)S(=O)(=O)c1ccc(S(=O)(=O)N2CC3(CCCC3)c3ccncc32)cc1` [Compound I-127, 4-({1′,2′-dihydrospiro[cyclopentane-1,3′-pyrrolo[2,3-c]pyridin]-1′-yl}sulfonyl)-N,N-dimethylbenzene-1-sulfonamide]: the EC50 in test [1] was in the range of 1010 to 5000 nM; in test [2], 2010 to 8000 nM.

Consider `CN(C)S(=N)(=O)c1ccc(S(=O)(=O)N2CC3(CCCCC3)c3ccccc32)cc1` (stereo not drawn) [Compound I-129, N,N-dimethyl-4-(spiro[cyclohexane-1,3′-indolin]-1′-ylsulfonyl)benzenesulfonimidamide], for which the EC50 in test [1] was 510 to 1000 nM; in test [2], not above 2000 nM.

For the compound `O=C(OCc1ccccc1)N1CCC2(CC1)CN(S(=O)(=O)c1ccc(C(F)F)cc1)c1cccc(F)c12` [Compound I-130, benzyl 1-[4-(difluoromethyl)benzenesulfonyl]-4-fluoro-1,2-dihydrospiro[indole-3,4′-piperidine]-1′-carboxylate], the EC50 in test [1] is not above 500 nM; in test [2] it was not above 2000 nM.

Take `O=C(OCc1ccccc1)N1CCC2(CC1)CN(S(=O)(=O)c1ccc(C(F)F)cc1)c1cc(F)ccc12` [Compound I-131, benzyl 1-((4-(difluoromethyl)phenyl)sulfonyl)-6-fluorospiro[indoline-3,4′-piperidine]-1′-carboxylate]: the EC50 in test [1] is not below 5010 nM; in test [2], not above 2000 nM.

With `O=C(OCc1ccccc1)N1CCC2(CC1)CN(S(=O)(=O)c1ccc(C(F)F)cc1)c1ccc(F)cc12` [Compound I-132], the figures for the EC50 in test [1] and in test [2] were not below 5010 nM and not above 2000 nM, respectively.

Consider `O=C(OCc1ccccc1)N1CCC2(CC1)CN(S(=O)(=O)c1ccc(C(F)F)cc1)c1c(F)cccc12` [Compound I-133, benzyl 1-((4-(difluoromethyl)phenyl)sulfonyl)-7-fluorospiro[indoline-3,4′-piperidine]-1′-carboxylate], for which the concentration giving a half-maximal response (EC50) is not below 5010 nM in test [1] and not above 2000 nM in test [2].

As to `O=C(OCc1ccccc1)N1CCC2(CC1)CN(S(=O)(=O)c1ccc(C(F)F)cc1)c1cccnc12` [Compound I-134, benzyl 1′-[4-(difluoromethyl)benzenesulfonyl]-1′,2′-dihydrospiro[piperidine-4,3′-pyrrolo[3,2-b]pyridine]-1-carboxylate], the EC50 in test [1] was not above 500 nM; in test [2], not above 2000 nM.

Consider `CCOC[C@]1(C)CC[C@]2(CC1)CN(S(=O)(=O)c1ccc(C(F)F)cc1)c1ccccc12` [Compound I-137, (1r,4r)-1′-[4-(difluoromethyl)benzenesulfonyl]-4-(ethoxymethyl)-4-methyl-1′,2′-dihydrospiro[cyclohexane-1,3′-indole]], for which the values for the EC50 in test [1] and in test [2] were not above 500 nM and not above 2000 nM, respectively.

With `O=C(OCc1ccccc1)N1CCC2(CC1)CN(S(=O)(=O)c1ccc(C(F)(F)C3CC3)cc1)c1ccccc12` [Compound I-139, benzyl 1-((4-(cyclopropyldifluoromethyl)phenyl)sulfonyl)spiro[indoline-3,4′-piperidine]-1′-carboxylate], the EC50 in test [1] is not above 500 nM; in test [2], not above 2000 nM.

As to `CN(C)S(=O)(=O)c1ccc(S(=O)(=O)N2CC3(CCN(C(=O)OCC4CC4)CC3)n3nccc32)cc1` [Compound I-145, cyclopropylmethyl 1′-[4-(dimethylsulfamoyl)benzenesulfonyl]-1′,2′-dihydrospiro[piperidine-4,3′-pyrazolo[1,5-a]imidazole]-1-carboxylate], the EC50 was not below 5010 nM in test [1] and not below 10000 nM in test [2].

Consider `Cc1cc2n(n1)C1(CCCCC1)CN2S(=O)(=O)c1ccc(C(F)F)cc1` [Compound I-148, 1′-[4-(difluoromethyl)benzenesulfonyl]-6′-methyl-1′,2′-dihydrospiro[cyclohexane-1,3′-pyrazolo[1,5-a]imidazole]], for which the EC50 in test [1] is not below 5010 nM; in test [2] it was not below 10000 nM.

With `Cc1ccc2c(c1)N(S(=O)(=O)c1ccc(S(=N)(=O)N(C)C)cc1)CC21CCCCC1` (stereo not drawn) [Compound I-149, N,N-dimethyl-4-({6′-methyl-1′,2′-dihydrospiro[cyclohexane-1,3′-indol]-1′-yl}sulfonyl)benzene-1-sulfonoimidamide], the EC50 in test [1] is not above 500 nM; in test [2], not above 2000 nM.

Turning to `Cc1nn2c(c1C)N(S(=O)(=O)c1ccc(S(=O)(=O)N(C)C)cc1)CC21CCCCC1` [Compound I-154, 4-({6′,7′-dimethyl-1′,2′-dihydrospiro[cyclohexane-1,3′-pyrazolo[1,5-a]imidazol]-1′-yl}sulfonyl)-N,N-dimethylbenzene-1-sulfonamide], the concentration giving a half-maximal response (EC50) in test [1] is not below 5010 nM; in test [2], not below 10000 nM.

For the compound `Cc1cnc2c(c1)N(S(=O)(=O)c1ccc(S(=N)(=O)N(C)C)cc1)CC21CCCCC1` (stereo not drawn) [Compound I-157, N,N-dimethyl-4-({6′-methyl-1′,2′-dihydrospiro[cyclohexane-1,3′-pyrrolo[3,2-b]pyridin]-1′-yl}sulfonyl)benzene-1-sulfonoimidamide], the EC50 in test [1] was not below 5010 nM; in test [2], not above 2000 nM.

As to `O=C(OCc1cccnc1)N1CCC2(CC1)CN(S(=O)(=O)c1ccc(C(F)F)cc1)c1ccccc12` [Compound I-158, (pyridin-3-yl)methyl 1-[4-(difluoromethyl)benzenesulfonyl]-1,2-dihydrospiro[indole-3,4′-piperidine]-1′-carboxylate], the half-maximal effective concentration (EC50) is 510 to 1000 nM in test [1] and not above 2000 nM in test [2].

Turning to `CC(C)OC(=O)N1CCC2(CC1)CN(S(=O)(=O)c1ccc(C(F)F)cc1)c1ccccc12` [Compound I-160, propan-2-yl 1-[4-(difluoromethyl)benzenesulfonyl]-1,2-dihydrospiro[indole-3,4′-piperidine]-1′-carboxylate], the figures for the 50% effective concentration (EC50) in test [1] and in test [2] were not above 500 nM and not above 2000 nM, respectively.

With `O=C(c1ccccc1)N1CCC2(CC1)CN(S(=O)(=O)c1ccc(C(F)F)cc1)c1ccccc12` [Compound I-161, 1′-benzoyl-1-[4-(difluoromethyl)benzenesulfonyl]-1,2-dihydrospiro[indole-3,4′-piperidine]], the EC50 in test [1] was 1010 to 5000 nM; in test [2] it was 2010 to 8000 nM.
